Data from patent publication US12036194B1, “Methods of administering solriamfetol to lactating women” (Axsome Malta Ltd., priority 2022, dated 2024).
Values joined by “and” are separate entries in the source; they are usually repeats but may differ in a detail not shown here. Identical values can stand only once. Counter-ions that a name gives are not always drawn.

Assay: Phase 4 single-dose study: safety and tolerability (adverse events, vital signs, 12-lead ECG, C-SSRS)
Type: in vivo, human
Conditions: for Subjects who discontinued due to AE / Subjects with Mild AE / Subjects with Moderate AE / Subjects with SAE / Subjects with an AE considered related to study drug / Subjects with an AE considered unrelated to study drug / Subjects with at least 1 AE: hydrochloride
Experimental: Pharmacokinetic analysis of breast milk obtained from both breasts (by pumping) was evaluated prior to dose administration and at intervals up to 72 hours postdose. Blood samples were also collected for plasma solriamfetol quantitation and PK analysis predose and at timepoints up to 72 hours postdose. Solriamfetol breast milk and plasma concentrations were measured using validated bioanalytical methods. Safety was assessed throughout the study by 12-lead ECG, vital sign measurements, the Columbia-Suicide Severity Rating Scale (C-SSRS), and the incidence of adverse events (AE).
Vital signs (blood pressure, pulse rate, temperature, and respiratory rate) were measured with the subject in a seated or supine position and resting for at least 5 minutes prior to taking the measurement. The dominant arm was used for blood pressure and pulse rate measurements. On Day 1, vital signs were collected at predose, and at approximately 2 (blood pressure and pulse) and 4 hours (blood pressure and pulse) postdose.
12-lead ECG was taken with the subject in a supine position and resting for at least 10 minutes prior to taking the measurement. On Day 1, ECGs were collected predose and at approximately 2 hours postdose.
Adverse events were monitored throughout the study by safety assessments, observations, and subject reporting, including the Safety FU telephone call 5-7 days (i.e., Days 9-11) after check-out from the study facility on Day 4, or ET.
The 12-lead ECGs were collected at Screening, Day −1 until Day 4. Single 12-lead ECG was obtained using an ECG machine that automatically calculated the heart rate and measured PR, QRS, QT, and corrected QT interval (QTc) intervals. Any abnormal safety assessments including ECG readings considered clinically significant in the medical and scientific judgment of the investigator were reported as an AE. The investigator had to review the ECG and document it in the source documents. Clinically significant abnormal ECG results reported during Screening were recorded as medical history and those reported after study drug were recorded as AEs.
Safety analyses were based on the Safety Population. The secondary endpoints for evaluating subject safety and tolerance were the incidence of reported AEs and the laboratory test results for all subjects.
Adverse events: Adverse events recorded in the electronic case report forms (eCRFs) were coded to SOC and PT using the Medical Dictionary for Regulatory Activities (MedDRA). Treatment-emergent adverse events (TEAEs) are defined as any event with onset date on or after the first dose of study drug or any ongoing event that worsened in severity after the date of the first dose of study drug or any event that was present at baseline but was subsequently considered drug-related by the investigator through the end of the study. The incidence of TEAEs were presented by severity, relationship to study drug, start and end date, seriousness, and outcome. The investigator assessed the severity and relatedness of each AE to study drug. Columbia-Suicide Severity Rating Scale (C-SSRS) data were summarized at scheduled visits and were listed. Other safety analyses were performed as appropriate.
12 Lead ECG: The number and percentage of subjects who had the following postbaseline clinically notable ECG interval abnormality was summarized: Ventricular rate >100 beats/min or ≤60 beats/min; PR interval ≥200 msec or ≤120 msec; QRS duration ≥100 msec or ≤80 msec; QT interval ≥440 msec or ≤350 msec; QTc Bazett and QTc Fredericia ≥470 msec or ≤330 msec; RR interval ≥1200 msec or ≤600 msec; and QTc Bazette and QTc Fredericia increase from study Baseline Value >30 msec. […]

[1] = Solriamfetol 150 mg single dose, N = 6
[2] = Solriamfetol 150 mg single dose, N = 6, listed as solriamfetol
[3] = any post-baseline visit/timepoint, 150 mg, N = 6

SMILES: NC(=O)OC[C@H](N)Cc1ccccc1 [Solriamfetol, (R)-2-amino-3-phenylpropyl carbamate (APC) hydrochloride]
- abnormal clinically significant ECG findings (150 mg single dose, N = 6): No abnormal clinically significant ECG findings
- number of TEAEs of mild intensity (dizziness, headache, agitation; related to study drug) (150 mg single dose, N = 6): 3 TEAEs
- number of TEAEs of moderate intensity (headache; unrelated to study drug) (150 mg single dose, N = 6): 1 TEAE
- outcome of TEAEs (150 mg single dose, N = 6): resolved
- subjects reporting suicidal ideation or event under Columbia-Classification Algorithm for Suicide Assessment (150 mg single dose, N = 6): None
- subjects with abnormal, clinically significant laboratory findings (150 mg single dose, N = 6): None
- total number of TEAEs reported (150 mg single dose, N = 6): 4 TEAEs
- Subjects who discontinued due to AE considered related to study drug [1]: 0 n (%)
- Subjects who discontinued due to AE considered unrelated to study drug [1]: 0 n (%)
- Subjects with Fatal AE [1]: 0 n (%)
- Subjects with Life-threatening AE [1]: 0 n (%)
- Subjects with SAE considered related to study drug [1]: 0 n (%)
- Subjects with SAE considered unrelated to study drug [1]: 0 n (%)
- Subjects with Severe AE [1]: 0 n (%)
- TEAE, PT Agitation [1]: 1 (16.7) n (%)
- TEAE, PT Dizziness [1]: 1 (16.7) n (%)
- TEAE, PT Headache [1]: 2 (33.3) n (%)
- TEAE, SOC Nervous system disorders [1]: 2 (33.3) n (%)
- TEAE, SOC Psychiatric disorders [1]: 1 (16.7) n (%)
- Subjects who discontinued due to AE [1]: 0 n (%)
- Subjects with Mild AE [1]: 2 (33.3) n (%)
- Subjects with Moderate AE [1]: 1 (16.7) n (%)
- Subjects with SAE [1]: 0 n (%)
- Subjects with an AE considered related to study drug [1]: 2 (33.3) n (%)
- Subjects with an AE considered unrelated to study drug [1]: 1 (16.7) n (%)
- Subjects with at least 1 AE [1]: 3 (50.0) n (%)
- Subjects who discontinued due to AE [2]: None
- Subjects with Mild AE [2]: 2 (33.3%) n (%)
- Subjects with Moderate AE [2]: 1 (16.7%) n (%)
- Subjects with SAE [2]: No SAEs
- Subjects with an AE considered related to study drug [2]: 2 (33.3%) n (%)
- Subjects with an AE considered unrelated to study drug [2]: 1 (16.7%) n (%)
- Subjects with at least 1 AE [2]: 3 (50%) n (%) and 3 n (%)
- Clinically notable Body temperature: Change in body temperature > 1.8% from the subjects baseline temperature recordings [3]: 1 (16.7) n (%)
- Clinically notable Diastolic blood pressure: Average diastolic blood pressure ≥ 95 mmHg or ≤ 60 mmHg [3]: 2 (33.3) n (%)
- Clinically notable ECG mean heart rate: Ventricular rate ≥ 100 beats/min or ≤ 60 beats/min [3]: 2 (33.3) n (%)
- Clinically notable PR interval, single beat: PR interval ≥ 200 msec or ≤ 120 msec [3]: 2 (33.3) n (%)
- Clinically notable Pulse rate: Pulse change by > 20% from the study baseline value/recordings [3]: 2 (33.3) n (%)
- Clinically notable QRS duration, single beat: QRS duration ≥ 100 msec or ≤ 80 msec [3]: 4 (66.7) n (%)
- Clinically notable QT interval, single beat: QT interval ≥ 440 msec or ≤ 350 msec [3]: 1 (16.7) n (%)
- Clinically notable Systolic blood pressure: Blood pressure change by > 20% from the study baseline value/recordings [3]: 1 (16.7) n (%)
- changes in vital sign parameters from baseline (baseline to Day 1 2 hours and 4 hours, Day 2, Day 3, Day 4): no major changes
- changes in ECG parameters from baseline (baseline to Day 1 predose and 2 hours, Day 2, Day 3, Day 4): no major changes
- overall safety and tolerability (single oral dose 150 mg, 6 healthy postpartum women): safe and well tolerated
